Data as given in ChEMBL document CHEMBL1909046, “DrugMatrix in vitro pharmacology data”.

Columns and labels:
[1] = DRUGMATRIX: Tumor Necrosis Factor (TNF), Non-Selective radioligand binding (ligand: [125I] TNF-alpha); format: cell membranes, Membrane; conditions: u-937; Not Active = under 50% inhibition at 10 µM
[2] = target: T1, Alpha-1D adrenergic receptor (Homo sapiens, UniProt P25100); format: cell membranes, HEK293, Membrane; conditions: hek293; further: in other assays of this panel Not Active means under 50% inhibition at 10 µM
T1 sequence (P25100 whole entry): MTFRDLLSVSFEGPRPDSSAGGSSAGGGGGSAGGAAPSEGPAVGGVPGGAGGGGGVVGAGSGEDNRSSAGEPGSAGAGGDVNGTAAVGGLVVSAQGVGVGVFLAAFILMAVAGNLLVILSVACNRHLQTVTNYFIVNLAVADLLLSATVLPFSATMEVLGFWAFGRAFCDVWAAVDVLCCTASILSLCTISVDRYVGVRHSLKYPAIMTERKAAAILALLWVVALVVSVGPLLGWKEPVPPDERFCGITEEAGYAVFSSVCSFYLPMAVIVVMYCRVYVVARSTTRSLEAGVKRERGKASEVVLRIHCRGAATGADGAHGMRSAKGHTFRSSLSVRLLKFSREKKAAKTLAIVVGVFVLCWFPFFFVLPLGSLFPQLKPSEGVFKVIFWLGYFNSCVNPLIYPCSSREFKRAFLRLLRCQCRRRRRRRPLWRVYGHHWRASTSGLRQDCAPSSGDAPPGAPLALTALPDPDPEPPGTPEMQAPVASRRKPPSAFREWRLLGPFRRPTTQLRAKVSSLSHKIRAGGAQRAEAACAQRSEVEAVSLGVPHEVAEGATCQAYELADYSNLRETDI

[3] = target: T2, Cathepsin G (Homo sapiens, UniProt P08311); format: tissue-based; conditions: neutrophil;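 further: inhibition of Cathepsin G enzyme activity, tested on an AMC-conjugated peptide substrate; in other assays of this panel Not Active means under 50% inhibition at 10 µM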
T2 sequence (P08311 whole entry): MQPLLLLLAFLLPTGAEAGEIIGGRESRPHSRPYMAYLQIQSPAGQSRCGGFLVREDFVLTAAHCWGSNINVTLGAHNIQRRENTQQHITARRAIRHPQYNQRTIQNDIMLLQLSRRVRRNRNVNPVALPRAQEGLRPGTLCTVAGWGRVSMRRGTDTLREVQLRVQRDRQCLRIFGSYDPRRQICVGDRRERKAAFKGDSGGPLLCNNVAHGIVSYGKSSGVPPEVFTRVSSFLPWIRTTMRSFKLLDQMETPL

[4] = target: T3, C-X-C chemokine receptor type 2 (Homo sapiens, UniProt P25025); format: cell membranes, Membrane; conditions: cho-k1; further: in other assays of this panel Not Active means under 50% inhibition at 10 µM
T3 sequence (P25025 whole entry): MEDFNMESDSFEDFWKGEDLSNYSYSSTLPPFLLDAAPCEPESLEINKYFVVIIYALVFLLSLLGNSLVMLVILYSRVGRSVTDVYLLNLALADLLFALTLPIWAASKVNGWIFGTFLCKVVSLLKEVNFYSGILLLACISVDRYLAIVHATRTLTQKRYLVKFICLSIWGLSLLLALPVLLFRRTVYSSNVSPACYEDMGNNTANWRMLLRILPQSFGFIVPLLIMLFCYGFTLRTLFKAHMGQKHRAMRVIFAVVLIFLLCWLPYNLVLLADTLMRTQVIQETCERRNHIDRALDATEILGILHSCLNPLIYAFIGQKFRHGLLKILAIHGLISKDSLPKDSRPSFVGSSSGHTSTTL

[5] = target: T4, Leukotriene C4 synthase (Cavia porcellus, UniProt A6XA80); format: tissue-based, Lung;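 further: enzyme inhibition assay of leukotriene C4 synthase, using LTA4 as the substrate; in other assays of this panel Not Active means under 50% inhibition at 10 µM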
T4 sequence (A6XA80 whole entry): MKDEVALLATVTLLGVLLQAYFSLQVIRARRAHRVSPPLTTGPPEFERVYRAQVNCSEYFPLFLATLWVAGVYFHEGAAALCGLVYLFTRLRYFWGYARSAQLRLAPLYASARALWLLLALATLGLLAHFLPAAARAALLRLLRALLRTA

[6] = target: Glycine receptor (Rattus norvegicus, UniProt P22771+P24524+P07727+P20781); format: cell membranes, Wistar, Spinal cord, Membrane; further: in other assays of this panel Not Active means under 50% inhibition at 10 µM
[7] = target: Cytochrome P450 2E1 (Homo sapiens, UniProt P05181); conditions: bti-tn-5b1-4; further: in other assays of this panel Not Active means under 50% inhibition at 10 µM
Sequence of Cytochrome P450 2E1 (P05181 whole entry): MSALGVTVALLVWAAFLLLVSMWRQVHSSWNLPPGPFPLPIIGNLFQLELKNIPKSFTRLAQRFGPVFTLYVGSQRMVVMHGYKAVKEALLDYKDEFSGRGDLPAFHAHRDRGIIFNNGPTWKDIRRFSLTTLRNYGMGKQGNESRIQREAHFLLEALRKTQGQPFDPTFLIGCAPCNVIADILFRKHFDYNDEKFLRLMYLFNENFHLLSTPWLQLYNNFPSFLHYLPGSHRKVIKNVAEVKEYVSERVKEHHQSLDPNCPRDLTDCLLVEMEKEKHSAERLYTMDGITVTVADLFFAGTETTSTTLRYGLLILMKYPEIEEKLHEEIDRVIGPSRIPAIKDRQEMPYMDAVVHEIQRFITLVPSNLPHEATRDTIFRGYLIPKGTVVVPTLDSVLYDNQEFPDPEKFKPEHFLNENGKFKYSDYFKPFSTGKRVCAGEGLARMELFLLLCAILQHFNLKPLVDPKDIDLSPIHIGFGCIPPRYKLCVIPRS

[8] = target: T5, Neutrophil elastase (Homo sapiens, UniProt P08246); format: tissue-based
T5 sequence (P08246 whole entry): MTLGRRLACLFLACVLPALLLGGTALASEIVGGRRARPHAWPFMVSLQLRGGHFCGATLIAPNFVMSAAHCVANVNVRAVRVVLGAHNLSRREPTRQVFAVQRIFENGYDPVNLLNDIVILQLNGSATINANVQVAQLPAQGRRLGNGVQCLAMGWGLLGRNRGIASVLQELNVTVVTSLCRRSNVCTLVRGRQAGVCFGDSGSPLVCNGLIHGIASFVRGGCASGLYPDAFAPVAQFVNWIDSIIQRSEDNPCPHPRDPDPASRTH

[9] = target: T6, Glucocorticoid receptor (Homo sapiens, UniProt P04150); conditions: hela s3; further: in other assays of this panel Not Active means under 50% inhibition at 10 µM
T6 sequence (P04150 whole entry): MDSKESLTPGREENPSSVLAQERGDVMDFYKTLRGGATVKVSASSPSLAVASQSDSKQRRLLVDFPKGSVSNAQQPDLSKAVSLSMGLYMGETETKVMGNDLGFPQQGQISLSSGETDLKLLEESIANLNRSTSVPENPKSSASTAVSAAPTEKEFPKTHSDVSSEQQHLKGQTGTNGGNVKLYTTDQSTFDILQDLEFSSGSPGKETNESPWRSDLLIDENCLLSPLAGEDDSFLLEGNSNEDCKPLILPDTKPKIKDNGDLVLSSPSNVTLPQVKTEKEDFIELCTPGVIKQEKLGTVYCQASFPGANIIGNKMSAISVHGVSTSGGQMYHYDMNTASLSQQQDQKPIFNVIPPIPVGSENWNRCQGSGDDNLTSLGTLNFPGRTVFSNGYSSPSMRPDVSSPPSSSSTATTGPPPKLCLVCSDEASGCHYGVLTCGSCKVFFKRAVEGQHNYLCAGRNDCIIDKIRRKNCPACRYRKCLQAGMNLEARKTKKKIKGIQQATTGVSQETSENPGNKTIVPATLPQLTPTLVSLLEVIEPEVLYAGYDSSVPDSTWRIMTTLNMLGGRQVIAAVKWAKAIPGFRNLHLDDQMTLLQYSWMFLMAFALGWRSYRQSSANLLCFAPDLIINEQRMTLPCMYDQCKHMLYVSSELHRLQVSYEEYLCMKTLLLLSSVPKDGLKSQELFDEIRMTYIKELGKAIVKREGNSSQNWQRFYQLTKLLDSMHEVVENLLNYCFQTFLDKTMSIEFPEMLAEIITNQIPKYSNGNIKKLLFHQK

CCOc1nc2cccc(C(=O)O)c2n1Cc1ccc(-c2ccccc2-c2nnn[nH]2)cc1
Not Active: IC50 [1] | Ki [1] | IC50 [2] | IC50 [3] | IC50 [4] | IC50 [5] | IC50 [6] | IC50 [7] | Ki [7] | IC50 [8] | IC50 [9]

O=C(O)CCCc1cccs1
Not Active: IC50 [1] | Ki [1] | IC50 [2] | IC50 [3] | IC50 [4] | IC50 [5] | IC50 [6] | IC50 [7] | Ki [7] | IC50 [8] | IC50 [9]

O=C(c1ccccc1F)N1CCC(Cc2ccccc2)CC1
Not Active: IC50 [1] | Ki [1] | IC50 [2] | IC50 [3] | IC50 [4] | IC50 [5] | IC50 [6] | IC50 [7] | Ki [7] | IC50 [8] | IC50 [9]

CC(O)COC[C@H]1O[C@@H]2O[C@H]3[C@H](O)[C@@H](O)[C@@H](O[C@H]4[C@H](O)[C@@H](O)[C@@H](O[C@H]5[C@H](O)[C@@H](O)[C@@H](O[C@H]6[C@H](O)[C@@H](O)[C@@H](O[C@H]7[C@H](O)[C@@H](O)[C@@H](O[C@H]8[C@H](O)[C@@H](O)[C@@H](O[C@H]1[C@H](O)[C@H]2O)O[C@@H]8COCC(C)O)O[C@@H]7COCC(C)O)O[C@@H]6COCC(C)O)O[C@@H]5COCC(C)O)O[C@@H]4COCC(C)O)O[C@@H]3COCC(C)O (stereo partly drawn) [2-HYDROXYPROPYL-BETA-CYCLODEXTRIN]
Not Active: IC50 [1] | Ki [1] | IC50 [2] | IC50 [3] | IC50 [4] | IC50 [5] | IC50 [6] | IC50 [7] | Ki [7] | IC50 [8] | IC50 [9]

NC(=O)c1cccc(N)c1 [3-AMINOBENZAMIDE]
Not Active: IC50 [1] | Ki [1] | IC50 [2] | IC50 [3] | IC50 [4] | IC50 [5] | IC50 [6] | IC50 [7] | Ki [7] | IC50 [8] | IC50 [9]

NC12CC3CC(CC(C3)C1)C2 [AMANTADINE]
Not Active: IC50 [1] | Ki [1] | IC50 [2] | IC50 [3] | IC50 [4] | IC50 [5] | IC50 [6] | IC50 [8] | IC50 [9]

N[C@@H](Cn1ccc(=O)c(O)c1)C(=O)O [L-MIMOSINE]
Not Active: IC50 [1] | Ki [1] | IC50 [2] | IC50 [3] | IC50 [4] | IC50 [5] | IC50 [6] | IC50 [8] | IC50 [9]

C[C@@H]1C/C=C/C=C/C=C/C=C/[C@H](O[C@@H]2O[C@H](C)[C@@H](O)[C@H](N)[C@@H]2O)C[C@@H]2O[C@](O)(C[C@@H](O)C[C@H]3O[C@@H]3/C=C/C(=O)O1)C[C@H](O)[C@H]2C(=O)O [NATAMYCIN]
Not Active: IC50 [1] | Ki [1] | IC50 [2] | IC50 [3] | IC50 [4] | IC50 [5] | IC50 [6] | IC50 [8] | IC50 [9]

CCN(CC)CCNC(=O)c1ccc(N)cc1 [PROCAINAMIDE]
Not Active: IC50 [1] | Ki [1] | IC50 [2] | IC50 [3] | IC50 [4] | IC50 [5] | IC50 [6] | IC50 [7] | Ki [7] | IC50 [8]

C[C@]12C=CC(=O)C=C1CC[C@H]1[C@@H]3C[C@@H](O)[C@](O)(C(=O)CO)[C@@]3(C)C[C@H](O)[C@@]12F [TRIAMCINOLONE]
Not Active: IC50 [1] | Ki [1] | IC50 [2] | IC50 [3] | IC50 [4] | IC50 [5] | IC50 [6] | IC50 [7] | Ki [7] | IC50 [8]

CCN(C(C)=O)c1cccc(-c2ccnc3c(C#N)cnn23)c1 [ZALEPLON]
Not Active: IC50 [1] | Ki [1] | IC50 [2] | IC50 [3] | IC50 [4] | IC50 [5] | IC50 [6] | IC50 [7] | Ki [7] | IC50 [8]
